Source: patent US5698411A, “Method for determining activity of enzymes in metabolically active whole cells” (priority 1995, dated 1997)

Key:
[1] = tested on: dipeptide reagent; experiment: effect of sodium chloride on dipeptide reagent; format: biochemical; conditions: 7 mM, pH 6.5 to 8.7
From the text: Inhibitors and poisons (or toxins) are components that can be added to reduce the activity of non-targeted enzymes that provide competing reactions for the leaving group. Inhibitors are usually very selective for a particular enzyme. For example, EDTA only works with enzymes requiring Ca^+2, Mg^+2 and some other metals. […] Preferred inhibitors for particular enzymes are included in Table 1.

[2] = tested on: aminopeptidase; experiment: inhibition of aminopeptidase reaction with (H-L-Asp)2 rhodamine 110; format: biochemical; conditions: approximately 10 mM; substrate (H-L-Asp)2 rhodamine 110
From the text: The chemical nature of the buffer is important to the reactivity Of the assay compound with the cellular enzymes. […] In addition, the assay compound hydrolysis by the enzyme occurs at an increased rate of reaction.

[3] = tested on: cathepsin B; conditions: cited from earlier work
[4] = tested on: metabolically active whole cell; experiment: substrate panel in normals and HIV + patients, TB infection (Table 4); format: cell-based, human; design: unit not given here
Description: A panel of assay compounds are assembled consisting of Ala-aminopeptidase and Lys-aminopeptidase, Dipeptidyl peptidase IV (Ala-Ala)2 rhodamine 110 and Cathepsin D to indicate possible TB infection in AIDS related cases.
A panel Of enzymatic substrates is performed consisting of Ala-aminopeptidase and Lys-aminopeptidase, Dipeptidyl peptidase IV (Ala-Ala)2 rhodamine 110 and Cathepsin D to indicate possible TB infection in AIDS related cases.

[5] = tested on: lymphocytes; experiment: aberrant enzyme activities in febrile children, lymphocytes (Table 7); format: cell-based, human
[6] = tested on: monocytes; experiment: aberrant enzyme activities in febrile children, monocytes (Table 7); format: cell-based, human
[7] = tested on: granulocytes; experiment: aberrant enzyme activities in febrile children, granulocytes (Table 7); format: cell-based, human
[8] = tested on: acute lympholytic Ficoll prepared lymphocytes; experiment: amino peptidase activity in acute lymphocytic leukemia lymphocytes; format: cell-based, human; conditions: FIG. 4B
From the text: The cell's ability to fight off an invader lies within its genetics and therefore cell type. The "readiness" however of any genetically capable group of cells to defend is different. A measure of this "readiness" is manifest in the available proteolytic enzymes contained within vacuoles or on the surface of the cell. The assay compound hydrolysis rate increases with increased mass of enzymes giving a picture of immune competence both in number of cells and activity level. […] Images were generated using Universal Imaging.

[9] = tested on: aminopeptidase; conditions: cited from earlier work
[10] = tested on: metabolically active cell; conditions: even when buffered
Description: Viability is confirmed with Trypan Blue or PI-FDA over a time period of 10 seconds to 30 minutes. If the viability of the cell sample at between one and three million cells/mL decreases by 10% then the salt of the compound is rejected and another salt of the assay compound is synthesized.

Compound: [Cl-].[Na+] [sodium chloride]
- inhibitory effect on dipeptide reagent [1]: slightly inhibitory effect

Compound: [Ca+2].[Cl-].[Cl-] [calcium chloride]
- inhibitory to the enzyme reaction [2]: inhibitory

Compound: CC(=O)N[C@@H](CC(C)C)C(=O)N[C@@H](CC(C)C)C(=O)N[C@H](C=O)CCCNC(=N)N [leupeptin]
- inhibition of cathepsin B [3]: selectively inhibits cathepsin B

Compound: CC(C)C[C@H](N)C(=O)Nc1ccc2c(c1)Oc1cc(NC(=O)[C@@H](N)CC(C)C)ccc1C21OC(=O)c2ccccc21 [LEU, (Leu)2 Rho 110]
- MEAN DELTA FL ([4]; HIV + PATIENTS): 130.5
- MEAN DELTA FL ([4]; NORMALS): 259.6
- aberrant enzyme activity, LYMPHS ([5]; P88 Enteritis): + (>0.25 Increase over normal range)
- aberrant enzyme activity, LYMPHS ([5]; P89 Viral Stomatitis): + (>0.25 Increase over normal range)
- aberrant enzyme activity, LYMPHS ([5]; P92 Adenitis): + (>0.25 Increase over normal range)
- aberrant enzyme activity, LYMPHS ([5]; P95 Viral Syndrome): + (>0.25 Increase over normal range)
- aberrant enzyme activity, LYMPHS ([5]; P96 Viral Syndrome): + (>0.25 Increase over normal range)
- aberrant enzyme activity, LYMPHS ([5]; P97 Pyelonephritis): .smallcircle.
- aberrant enzyme activity, LYMPHS ([5]; P99 Viral Syndrome): .smallcircle.
- aberrant enzyme activity, LYMPHS ([5]; P101 Fever -- Unknown Origin): + (>0.25 Increase over normal range)
- aberrant enzyme activity, LYMPHS ([5]; P102 UTI): .smallcircle.
- aberrant enzyme activity, LYMPHS ([5]; P103 Viral Syndrome): + (>0.25 Increase over normal range)
- aberrant enzyme activity, MONOS ([6]; P88 Enteritis): + (>0.25 Increase over normal range)
- aberrant enzyme activity, MONOS ([6]; P89 Viral Stomatitis): + (>0.25 Increase over normal range)
- aberrant enzyme activity, MONOS ([6]; P92 Adenitis): + (>0.25 Increase over normal range)
- aberrant enzyme activity, MONOS ([6]; P95 Viral Syndrome): + (>0.25 Increase over normal range)
- aberrant enzyme activity, MONOS ([6]; P96 Viral Syndrome): + (>0.25 Increase over normal range)
- aberrant enzyme activity, MONOS ([6]; P97 Pyelonephritis): + (>0.25 Increase over normal range)
- aberrant enzyme activity, MONOS ([6]; P99 Viral Syndrome): .smallcircle.
- aberrant enzyme activity, MONOS ([6]; P101 Fever -- Unknown Origin): + (>0.25 Increase over normal range)
- aberrant enzyme activity, MONOS ([6]; P102 UTI): .smallcircle.
- aberrant enzyme activity, MONOS ([6]; P103 Viral Syndrome): + (>0.25 Increase over normal range)
- aberrant enzyme activity, GRANS ([7]; P88 Enteritis): + (>0.25 Increase over normal range)
- aberrant enzyme activity, GRANS ([7]; P89 Viral Stomatitis): + (>0.25 Increase over normal range)
- aberrant enzyme activity, GRANS ([7]; P92 Adenitis): + (>0.25 Increase over normal range)
- aberrant enzyme activity, GRANS ([7]; P95 Viral Syndrome): + (>0.25 Increase over normal range)
- aberrant enzyme activity, GRANS ([7]; P96 Viral Syndrome): + (>0.25 Increase over normal range)
- aberrant enzyme activity, GRANS ([7]; P97 Pyelonephritis): .smallcircle.
- aberrant enzyme activity, GRANS ([7]; P99 Viral Syndrome): .smallcircle.
- aberrant enzyme activity, GRANS ([7]; P101 Fever -- Unknown Origin): + (>0.25 Increase over normal range)
- aberrant enzyme activity, GRANS ([7]; P102 UTI): .smallcircle.
- aberrant enzyme activity, GRANS ([7]; P103 Viral Syndrome): + (>0.25 Increase over normal range)
- amino peptidase activity [8]: lost their enzymatic activity

Compound: CC(C)C[C@H](NC(=O)[C@@H](O)[C@H](N)Cc1ccccc1)C(=O)O [bestatin]
- inhibition of aminopeptidase [9]: selectively inhibits aminopeptidase

Compound: Br.Cc1ncc(C)n2nc(CCc3nc(-c4ccccc4)cn3C)nc12 [hydrogen bromide (HBr), hydrogen bromide]
- cell killing [10]: kills cells
